The target of this assay is T1, Recombinant human HSD17B13 enzyme (Homo sapiens, UniProt Q7Z5P4).
T1 sequence (Q7Z5P4 20-300): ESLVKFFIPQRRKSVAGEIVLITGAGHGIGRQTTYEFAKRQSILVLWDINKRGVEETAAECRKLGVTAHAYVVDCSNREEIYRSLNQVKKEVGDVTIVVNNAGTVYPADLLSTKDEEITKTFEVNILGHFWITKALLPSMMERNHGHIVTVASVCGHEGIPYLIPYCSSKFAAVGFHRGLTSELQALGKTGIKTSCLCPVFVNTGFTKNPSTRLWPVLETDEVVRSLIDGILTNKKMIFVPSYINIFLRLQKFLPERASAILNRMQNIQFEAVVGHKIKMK
In words: HSD17b13 NAD(P)H-Glo biochemical assay. The following applies: for IC50: 50 uM estradiol, 1 mM NAD+, NAD(P)H-Glo luminescence, read-out: HSD17β13 IC50. As for the experimental part: Example B-1: HSD17b13 NAD(P)H-Glo Biochemical Assay
Recombinant human HSD17B13 enzyme. Substrate: estradiol (Sigma β-Estradiol E8875), 100 mM in DMSO. Cofactor: NAD+ Grade I free acid (Sigma 10127965001), 20 mM in H2O. Assay buffer final concentration: 20 mM Tris pH7.4 with 0.002% Tween-20 and 0.02% BSA. Assay performed in 384 well solid bottom plate (Corning 3570). Enzymatic activity detected by NAD(P)H-Glo™ Detection System (Promega G9062).
Inhibitor compounds were serially diluted in DMSO and then further diluted in assay buffer to a 10× concentration consisting of 1% DMSO.
HSD17b13 enzyme was diluted in 1× assay buffer to the desired enzyme concentration based on the specific activity of the enzyme lot. 20 uL of diluted enzyme was added to each well along with 2.5 uL of 10× inhibitor solution. Assay plate was incubated at RT for 20 minutes, and then 2.5 uL of a 10× substrate/cofactor mix was added to each well for a final concentration of 50 uM estradiol and 1 mM NAD+. Assay plate was incubated at 37° C. for 3 hours. NAD(P)H-Glo™ Detection System reagents were prepared according to manufacturer's specifications, and 25 uL was added to each well. After incubating for 1 hour at RT, luminescence was measured.

Counter-ions that a name gives are not always drawn. Where only a bound is given, the exact number is not on record here.

As usually defined, the IC50 is the point on the concentration scale where inhibition reaches its midpoint.

In the case of `CC1(C)CC=C(c2ccc(-n3ncc4cc(F)c(O)c(F)c43)cc2)CC1` [Compound 27.2, 1-(4′,4′-Dimethyl-2′,3′,4′,5′-tetrahydro-[1,1′-biphenyl]-4-yl)-5,7-difluoro-1H-indazol-6-ol], the IC50 was less than 100 nM.
Still for that read-out and setting: in the case of `Nc1ccc(-c2ccc(-n3ncc4cc(F)c(O)cc43)cc2)cc1` [Compound 13.28, 1-(4′-Amino-[1,1′-biphenyl]-4-yl)-5-fluoro-1H-indazol-6-ol] it was 100 to 1000 nM; in that of `Oc1cc2c(cnn2-c2ccc(-c3ccccc3O)cc2)cc1F` [Compound 13.2, 5-Fluoro-1-(2′-hydroxy-[1,1′-biphenyl]-4-yl)-1H-indazol-6-ol], 100 to 1000 nM; in that of `CS(=O)(=O)N1CCC(Oc2ccc(-n3ncc4cc(F)c(O)c(F)c43)cc2)CC1` [Compound 31, 5,7-Difluoro-1-(4-((1-(methylsulfonyl)piperidin-4-yl)oxy)phenyl)-1H-indazol-6-ol], 100 to 1000 nM.
Still for that read-out and setting: in the case of `CC1(C)CCN(c2cnc(-n3ncc4cc(F)c(O)c(F)c43)cn2)CC1` [Compound 26.6, 1-(5-(4,4-Dimethylpiperidin-1-yl)pyrazin-2-yl)-5,7-difluoro-1H-indazol-6-ol] it was less than 100 nM; in that of `Oc1c(F)cc2cnn(-c3ccc(C4CCOCC4)cc3)c2c1F` [Compound 27.6, 5,7-Difluoro-1-(4-(tetrahydro-2H-pyran-4-yl)phenyl)-1H-indazol-6-ol], less than 100 nM.
On the same count and under the same terms, in the case of `CS(=O)(=O)N1CCN(c2ccc(-n3ncc4cc(F)c(O)cc43)cc2)CC1` [Compound 21.2, 5-Fluoro-1-(4-(4-(methylsulfonyl)piperazin-1-yl)phenyl)-1H-indazol-6-ol] it was 1000 to 30000 nM.
Turning to `O=S1(=O)CCC2(CC1)CN(c1ccc(-n3ncc4cc(F)c(O)c(F)c43)cc1)C2` [Compound 24.11, 2-(4-(5,7-Difluoro-6-hydroxy-1H-indazol-1-yl)phenyl)-7-thia-2-azaspiro[3.5]nonane 7,7-dioxide], the IC50 lay in the range of 100 to 1000 nM.
`NS(=O)(=O)c1cccc(-c2ccc(-n3ncc4cc(F)c(O)cc43)cc2)c1` [Compound 13.37, 4′-(5-Fluoro-6-hydroxy-1H-indazol-1-yl)-[1,1′-biphenyl]-3-sulfonamide]: the IC50 lay in the range of 100 to 1000 nM.
Same read-out and setting: in the case of `Oc1cc2c(cnn2-c2ccc(-c3ccccc3)cc2)cc1F` [Compound 2.2, 1-([1,1′-Biphenyl]-4-yl)-5-fluoro-1H-indazol-6-ol] it was 100 to 1000 nM.
The same measure, in the same setting: in the case of `CC(C)n1c(=O)n(-c2ccc(N3CCC(C)(C)CC3)cc2)c2c(F)c(O)c(F)cc21` [Compound 21.13, 3-(4-(4,4-Dimethylpiperidin-1-yl)phenyl)-4,6-difluoro-5-hydroxy-1-isopropyl-1H-benzo[d]imidazol-2(3H)-one] it was 100 to 1000 nM.
On the same count and under the same terms, in the case of `Cn1c(=O)c2cc(F)c(O)c(F)c2n1-c1ccc(N2CCC(C)(C)CC2)cc1` [Compound 37, 1-(4-(4,4-Dimethylpiperidin-1-yl)phenyl)-5,7-difluoro-6-hydroxy-2-methyl-1H-indazol-3(2H)-one] it was 100 to 1000 nM; in that of `CS(=O)(=O)N1CCN(c2ccc(-n3ncc4cc(F)c(O)c(F)c43)cc2F)CC1` [Compound 23.7, 5,7-Difluoro-1-(3-fluoro-4-(4-(methylsulfonyl)piperazin-1-yl)phenyl)-1H-indazol-6-ol], 100 to 1000 nM; in that of `Oc1c(F)cc2cnn(-c3ccc(N4CCOCC4)cc3)c2c1F` [Compound 23.3, 5,7-Difluoro-1-(4-morpholinophenyl)-1H-indazol-6-ol], 100 to 1000 nM.
On to `Oc1cc(F)c2cnn(-c3ccc(-c4cccc(O)c4Br)cc3)c2c1` [Compound 2.9, 1-(2′-Bromo-3′-hydroxy-[1,1′-biphenyl]-4-yl)-4-fluoro-1H-indazol-6-ol], for which the 50% inhibitory concentration (IC50) was 1000 to 30000 nM.
Still for that read-out and setting: in the case of `O=C(O)c1cccc(-c2ccc(-n3ncc4cc(F)c(O)cc43)cc2)c1` [Compound 13.29, 4′-(5-Fluoro-6-hydroxy-1H-indazol-1-yl)-[1,1′-biphenyl]-3-carboxylic acid] it was 1000 to 30000 nM; in that of `C[C@H]1CN(c2ccc(-n3ncc4cc(F)c(O)c(F)c43)cc2)C[C@H](C)O1` (relative stereo) [Compound 20, 1-(4-(trans-2,6-Dimethylmorpholino)phenyl)-5,7-difluoro-1H-indazol-6-ol], less than 100 nM.
Same read-out and setting: in the case of `O=S1(=O)CCN(c2ccc(-n3ncc4cc(F)c(O)c(F)c43)cc2)CC1` [Compound 23.5, 4-(4-(5,7-Difluoro-6-hydroxy-1H-indazol-1-yl)phenyl)thiomorpholine 1,1-dioxide] it was 100 to 1000 nM.
Still for that read-out and setting: in the case of `CC1CN(c2ccc(-n3ncc4cc(F)c(O)c(F)c43)cc2)CC(C)S1(=O)=O` (centres unmarked) [Compound 32, 4-(4-(5,7-Difluoro-6-hydroxy-1H-indazol-1-yl)phenyl)-2,6-dimethylthiomorpholine 1,1-dioxide] it was 100 to 1000 nM; in that of `COc1cccc(-c2ccc(-n3ncc4cc(F)c(O)cc43)cc2)c1` [Compound 13.20, 5-Fluoro-1-(3′-methoxy-[1,1′-biphenyl]-4-yl)-1H-indazol-6-ol], 100 to 1000 nM.
As to `CC(=O)Nc1ccc(-c2ccc(-n3ncc4cc(F)c(O)cc43)cc2)cc1` [Compound 13.32, N-(4′-(5-Fluoro-6-hydroxy-1H-indazol-1-yl)-[1,1′-biphenyl]-4-yl)acetamide], the inhibition at 100 µM (3 h, at 100 uM compound, read-out: HSD17β13 % at 100 uM) was found to be 40%.
Consider `Oc1ccc2cnn(-c3ccc(-c4ccc(O)c(Cl)c4)cc3)c2c1` [Compound 18.1, 1-(3′-Chloro-4′-hydroxy-[1,1′-biphenyl]-4-yl)-1H-indazol-6-ol], for which the IC50 is 100 to 1000 nM.
With `NC(=O)c1cccc(-c2ccc(-n3ncc4cc(F)c(O)cc43)cc2)c1` [Compound 13.35, 4′-(5-Fluoro-6-hydroxy-1H-indazol-1-yl)-[1,1′-biphenyl]-3-carboxamide], the IC50 is 100 to 1000 nM.
In the case of `CS(=O)(=O)NC1CN(c2ccc(-n3ncc4cc(F)c(O)cc43)cc2)C1` [Compound 21.1, N-(1-(4-(5-Fluoro-6-hydroxy-1H-indazol-1-yl)phenyl)azetidin-3-yl)methanesulfonamide], the half-maximal inhibitory concentration (IC50) was 1000 to 30000 nM.
On the same count and under the same terms, in the case of `CS(=O)(=O)N1CCN(c2cnc(-n3nnc4cc(F)c(O)c(F)c43)cn2)CC1` [Compound 26.19, 5,7-Difluoro-1-(5-(4-(methylsulfonyl)piperazin-1-yl)pyrazin-2-yl)-1H-benzo[d][1,2,3]triazol-6-ol] it was 100 to 1000 nM; in that of `CC1(C)CCN(c2cnc(-n3ncc4cc(F)c(O)c(F)c43)nc2)CC1` [Compound 26.8, 1-(5-(4,4-Dimethylpiperidin-1-yl)pyrimidin-2-yl)-5,7-difluoro-1H-indazol-6-ol], 100 to 1000 nM.
Consider `CC1(C)CCN(c2ccc(N3C(=O)C(O)c4cc(F)c(O)c(F)c43)cc2)CC1` (centres unmarked) [Compound 35, 1-(4-(4,4-Dimethylpiperidin-1-yl)phenyl)-5,7-difluoro-3,6-dihydroxyindolin-2-one hydrochloride], for which the inhibition at 10 µM (3 h, read-out: HSD17β13 % at 10 uM) is less than 20%.
As for `CC1(C)CCN(c2ccc(-n3cnc4cc(F)c(O)c(F)c43)cc2)CC1` [Compound 21.5, 1-(4-(4,4-Dimethylpiperidin-1-yl)phenyl)-5,7-difluoro-1H-benzo[d]imidazol-6-ol], the IC50 was less than 100 nM.
As for `CC1(C)CCN(c2ccc(-n3c(=O)sc4cc(F)c(O)c(F)c43)cc2)CC1` [Compound 7.3, 3-(4-(4,4-Dimethylpiperidin-1-yl)phenyl)-4,6-difluoro-5-hydroxybenzo[d]thiazol-2(3H)-one], the IC50 lay within 100 to 1000 nM.

Source of the values: patent US20240083853A1, “HSD17B13 INHIBITORS AND USES THEREOF” (FL2022-001, Inc., priority 2020, published 2024).
